{
  "source": "patent US7655392B2",
  "about": "“Quenching methods for red blood cell inactivation process” (priority 2004, dated 2010)",
  "system": "Human Leukocyte Genomic DNA",
  "assay": "PIC-1 adduct frequency on leukocyte genomic DNA (14C-labelled PIC-1)",
  "assay_type": "biochemical",
  "settings": "20 h RT",
  "from_the_text": "The quenching methods of the invention can also be compared to existing methods by determining the level of modification of nucleic acids in a sample. Typically, a red blood cell composition may contain leukocytes, and the nucleic acid from the leukocytes can be isolated. A pathogen inactivating compound having a radioactive isotope that, upon reaction of the compound with nucleic acid, will remain bound to the nucleic acid. This can be used to assess the amount of compound reacted with the nucleic acid for a variety of quenching methods, and provides a measure that can be directly correlated to expected leukocyte inactivation. The number of adducts formed per 1,000 nucleic acid base pairs can be used as a model to assess the expected impact of the various methods on pathogen inactivation. Alternatively, a suitable amount of a pathogen can be added to a red blood cell composition and the nucleic acid of the pathogen can be isolated after treatment. However, in this case the sample needs to be leukoreduced such that the levels of any residual leukocytes will not interfere with the measurement of pathogen nucleic acid.\nThe PIC-1 used included radiolabeled PIC-1, where the reactive group included a ^14C label (ViTrax, Inc., Placentia, Calif.). The specific activity of the PIC-1 used was […]. All samples were incubated at room temperature for 20 hours. After the incubation, 20 mL of RBC were diluted with a 20 mL volume of PBS and 20 mL of the mixture were added to each of two tubes containing 10 mL of Ficoll. The suspension was then centrifuged at 400×g for 30 minutes. The white blood cell portion was separated and the centrifuge step repeated after adding another 20 mL of PBS. The pellets obtained were combined and the combined pellet was resuspended in 5 mL Lysis buffer (100 mM NaCl, 10 mM Tris HCl, 25 mM EDTA, 5% SDS, 0.1 mg/mL Proteinase K, Sigma, St. Louis, Mo.) and was incubated at 50° C. for at least two hours. The resulting solution was then extracted with 5 mL of phenol:chloroform:isoamyl alcohol […], followed by 5 mL of chloroform, and then 5 mL of ether. The genomic DNA was isolated in the aqueous layer and precipitated by addition of 0.5 mL of 3 M NaOAc, 10 mL of 100% ethanol, followed by incubation of the final mixture in a dry ice/ethanol bath. The DNA was isolated by centrifugation at 6,000×g for 10′. The supernatant was removed, and the pellet air-dried and resuspended in 1 mL of TE buffer (100 mM Tris HCl, 1 mM EDTA, pH=7.4) The amount of DNA isolated was quantified by UV absorption at 260 nm and the amount of PIC-1 adducts was quantified by liquid scintillation counting (Perkin Elmer-Wallac, Winspectral 1414 Liquid Scintillation Counter, Shelton, Conn.) of the solution of DNA, using the specific activity of the PIC-1 to assess the molar ratio of PIC-1 to DNA base pairs. […] Glutathione is indicated as “GSH” and cysteine as “Cys” in the table, as well as elsewhere herein. The determination of adduct frequency was used as a surrogate measurement for the inactivation of leukocytes. It is known that under the standard pathogen inactivation conditions, leukocytes are inactivated to the level of detection of a limiting dilution assay, which corresponds to 5.3 log of inactivation. The mechanism of inactivation is through formation of adducts on the genomic nucleic acids. […] Similar studies could be done with a suitable pathogen using leukoreduced red blood cells in order to assess the binding to the pathogen nucleic acid under various conditions.",
  "key": {"[1]": {"settings": "20 mM GSH neutralized with 2 eq, 0.2 mM PIC-1 10 min later"}, "[2]": {"settings": "20 mM each neut. GSH (2 eq) and Cys (1 eq), 0.2 mM PIC-1 10 min later"}},
  "note": "Where “and” joins values, the source holds several entries; their conditions need not be identical. Identical values can stand only once.",
  "data": [
    {"smiles": "O=C(CCNc1c2ccccc2nc2ccccc12)OCCN(CCCl)CCCl", "note": "[PIC-1]", "values": [
      {"measurement": "Adduct frequency (average number of base pairs between adducts)", "setting": "0.2 mM PIC-1, 2 mM acidic GSH", "value": "44 and 29"},
      {"measurement": "Adducts per kbp", "setting": "0.2 mM PIC-1, 2 mM acidic GSH", "value": "23 and 34"},
      {"measurement": "Adduct frequency (average number of base pairs between adducts)", "setting": "0.2 mM PIC-1, no quencher", "value": "36 and 35"},
      {"measurement": "Adducts per kbp", "setting": "0.2 mM PIC-1, no quencher", "value": 28},
      {"measurement": "Adduct frequency (average number of base pairs between adducts)", "setting": "[1]", "value": "27 and 28"},
      {"measurement": "Adducts per kbp", "setting": "[1]", "value": "37 and 36"},
      {"measurement": "Adduct frequency (average number of base pairs between adducts)", "setting": "[2]", "value": 33},
      {"measurement": "Adducts per kbp", "setting": "[2]", "value": 30}
    ]}
  ]
}
